Experimental data from patent US12098135B2, “Aldoketo reductase inhibitors and uses thereof” (CASE WESTERN RESERVE UNIVERSITY, priority 2018, dated 2024).

Biological target: T1, AKR1A1 (Homo sapiens, UniProt P14550)
T1 sequence (P14550 1-325): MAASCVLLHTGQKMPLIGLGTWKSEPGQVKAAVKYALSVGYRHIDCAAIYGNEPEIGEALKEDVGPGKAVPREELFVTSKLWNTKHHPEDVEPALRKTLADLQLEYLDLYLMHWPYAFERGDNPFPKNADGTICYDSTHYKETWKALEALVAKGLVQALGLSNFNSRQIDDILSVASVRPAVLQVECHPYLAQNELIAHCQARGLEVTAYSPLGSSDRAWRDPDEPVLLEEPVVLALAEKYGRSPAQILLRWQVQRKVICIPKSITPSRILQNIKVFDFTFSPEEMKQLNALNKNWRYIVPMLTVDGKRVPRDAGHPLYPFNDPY
Assay: AKR activity measured using S-nitroso-Coenzyme A (SNO-CoA) as a substrate; selectivity for AKR1A1 versus AKR1B1
Format: biochemical
Source text: In some embodiments, the selectivity of the AKR inhibitor for AKR1A1 inhibition versus other AKRs, such as AKR1B1, can be measured using S-nitroso-Coenzyme A (SNO-CoA) as a substrate. In this instance where SNO-CoA is used as a substrate to measure AKR activity, the AKR inhibitor can have a selectivity for AKR1A1 versus AKR1B1 of ≥1 time, ≥2 times, ≥5 times, ≥10 times, ≥20 times, ≥30 times, ≥40 times, ≥50 times or more. By way of example, JSD-26-1, which is described in the example below, has an AKR1A1/AKR1B1 selectivity of at least 9. In some embodiments, the AKR inhibitor can have negligible inhibition of AKR1B1 activity of SNO-CoA, and particularly compared to AKR1A1 activity.

AKR1A1/AKR1B1 selectivity: at least 9
Compound: O=C1NC(=O)C2(N1)c1ccccc1-c1ccc(C3CC3)cc12 (stereo not shown) [JSD-26-1]
